Read-outs that look alike come from different tables or passages of the source.

The subject of test [1] is CK1δ. Details: method as in PMID 31817920. To be noted: ATP 10 µM, read-out: IC50 in Literature; cited from earlier work.
Test [2] has as its target GST-CK1δ (Homo sapiens, UniProt P48730). In words: radiometric in vitro kinase reaction, GST-CK1δ, phosphate incorporation into α-casein.
Procedure: (§1) All in vitro kinase reactions were performed at 30 °C in a total volume of 15 µL containing 25 mM Tris-HCl (pH 7.0), 10 mM MgCl2, 100 µM EDTA and 0.4 pmol [γ-^32P]-ATP. […] GST- or 6×His-tagged CK1δ or CK1ε were used as enzymes in 7, 70 or 335 nM concentration. Additionally, a reaction without enzyme was performed and used to determine the background signal specifying the minimal usable enzyme concentration (signal to background ratio ≥10). Reactions were stopped by adding 3 µL of 5× SDS loading buffer and boiling at 95 °C for 5 min. Proteins were separated by SDS-PAGE and stained with Coomassie Brilliant Blue R250 (Waldeck GmbH & Co. KG, Muenster, Germany). Radioactively labelled proteins were visualized by autoradiography. For quantification, phosphorylated proteins were excised from dried gels and phosphate incorporation was measured via Cherenkov counting.
(§2) Raw data was used to calculate enzyme velocity (V) (phosphate transfer per min). V was plotted over ATP concentration and fitted to the Michaelis-Menten model using GraphPad Prism 7 (GraphPad Software, La Jolla, CA, USA). Km was calculated as the concentration of substrate needed to get half-maximal velocity. In order to determine IC50 values, raw data was transformed from initially measured cpm values to pmol of transferred phosphate. Subsequently data was transformed logarithmically (X = log(X)), normalized to DMSO (100%) and zero (0%) and finally fit to sigmoidal dose-response curves (variable slope) with nonlinear regression using GraphPad Prism 7.
For test [3], the target named is 6×His-CK1δ (Homo sapiens, UniProt P48730). In words: radiometric in vitro kinase reaction, 6×His-CK1δ, phosphate incorporation into α-casein.
6×His-CK1δ, sequence (P48730 whole entry): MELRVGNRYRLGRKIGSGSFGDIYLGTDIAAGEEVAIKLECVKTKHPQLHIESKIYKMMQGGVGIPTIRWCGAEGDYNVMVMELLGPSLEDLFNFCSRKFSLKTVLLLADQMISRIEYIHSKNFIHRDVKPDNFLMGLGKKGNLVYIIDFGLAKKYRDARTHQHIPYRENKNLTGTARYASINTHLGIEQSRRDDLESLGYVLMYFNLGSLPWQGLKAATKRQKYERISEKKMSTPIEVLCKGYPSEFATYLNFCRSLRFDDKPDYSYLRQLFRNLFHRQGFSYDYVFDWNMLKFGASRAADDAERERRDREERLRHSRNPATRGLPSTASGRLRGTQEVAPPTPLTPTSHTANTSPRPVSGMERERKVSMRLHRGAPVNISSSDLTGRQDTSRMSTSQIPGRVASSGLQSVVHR
Procedure: as §1, §2
Test [4] deals with CK1εΔ319. Details: method as in PMID 17502429. Conditions: Working Group A, CK1εΔ319, ATP 5 µM; cited from earlier work.
Test [5] deals with 6×His-CK1ε. Also noted: method as in PMID 19458106. To be noted: Working Group B, ATP 10 µM; cited from earlier work.
Test [6] has as its system untagged CK1δ. Details: method as in PMID 19458106. To be noted: CK1-specific peptide substrate, ATP 10 µM, luminescence-based, read-out: IC50 in Literature; cited from earlier work.
Test [7] concerns CK1δ of yeast origin. Conditions: Working Group B, ATP 100 µM; cited from earlier work.
Test [8] relates to CK1δ(1–294). Conditions: Working Group A, ATP 20 µM; cited from earlier work.
Test [9] addresses T1, 6×His-CK1ε (Homo sapiens, UniProt P49674).
T1 construct: made in house
In words: radiometric in vitro kinase reaction, 6×His-CK1ε, phosphate incorporation into α-casein. Type of test: biochemical.
Procedure: as §1
Raw data was used to calculate enzyme velocity (V) (phosphate transfer per min). V was plotted over ATP concentration and fitted to the Michaelis-Menten model using GraphPad Prism 7 (GraphPad Software, La Jolla, CA, USA). Km was calculated as the concentration of substrate needed to get half-maximal velocity. In order to determine IC50 values, raw data was transformed from initially measured cpm values to pmol of transferred phosphate. […]

For test [10], the system named is CK1δ. Conditions: Working Group A, ATP 10 µM; cited from earlier work.

GST-CK1δ, sequence (P48730 whole entry): as above
T1 sequence (P49674 whole entry): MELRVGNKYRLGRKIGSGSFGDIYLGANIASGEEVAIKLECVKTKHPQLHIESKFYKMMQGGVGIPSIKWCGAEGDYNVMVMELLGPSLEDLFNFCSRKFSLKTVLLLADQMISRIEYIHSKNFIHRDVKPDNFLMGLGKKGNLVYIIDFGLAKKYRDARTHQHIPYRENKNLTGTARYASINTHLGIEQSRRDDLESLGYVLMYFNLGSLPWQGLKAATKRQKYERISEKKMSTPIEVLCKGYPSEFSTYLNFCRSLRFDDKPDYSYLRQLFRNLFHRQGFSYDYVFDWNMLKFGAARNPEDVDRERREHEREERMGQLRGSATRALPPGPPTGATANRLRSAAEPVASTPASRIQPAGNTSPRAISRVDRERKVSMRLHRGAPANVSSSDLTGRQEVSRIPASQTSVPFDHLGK

Turning to `O=C(Nc1nc2ccc(C(F)(F)F)cc2s1)Sc1nccc(=O)n1Cc1ccc(OC(F)(F)F)cc1` [Liu-20], the IC50 in [1] was 86 nM; in test [2] (GST-CK1δ 7 nM, 10 min, ATP equal to Km (ATP) 6 µM, α-casein 10 µM, 30 °C), 396 nM; in [3] (6×His-CK1δ 70 nM, 10 min, ATP equal to Km (ATP) 14 µM, α-casein 10 µM, 30 °C) it was 404 nM. The Ki in test [2] (read-out: Kic, GST-CK1δ, Kic = IC50/2 (Cheng-Prusoff, ATP = Km)) was found to be 198 nM; in test [3] (read-out: Kic, 6×His-CK1δ, Kic = IC50/2 (Cheng-Prusoff, ATP = Km)) it was 202 nM.
Take `Nc1ncnc2c1ncn2[C@@H]1O[C@H](COP(=O)(O)OP(=O)(O)OP(=O)(O)O)[C@@H](O)[C@H]1O` [ATP]: the Km was 6 µM in [2] (read-out: Km (ATP), GST-CK1δ 7 nM, 10 min, ATP 0.5 to 100 µM, Michaelis-Menten) and 14 µM in test [3] (read-out: Km (ATP), 6×His-CK1δ 70 nM, 10 min, ATP 0.5 to 100 µM, Michaelis-Menten).
With `Nc1nccc(-c2c(-c3ccc(F)cc3)ncn2C2CCCCC2)n1` [PF-670462], the IC50 in test [4] was 8 nM; in test [5], 80 nM; in test [6], 13 nM.
Take `NC(=O)c1ccc(-c2nc(-c3ccc4c(c3)OCCO4)c(-c3ccccn3)[nH]2)cc1` [D4476]: the IC50 in test [7] is 200 nM; in [8], 300 nM.
On to `Nc1ncnc2c1c(COc1cccc(Cl)c1)nn2C1CCOCC1` [PF-4800567], for which half-maximal inhibition in [9] (IC50) was put at 72.3 nM. This compound also showed a Ki in test [9] (6×His-CK1ε, Kic = IC50/2 (Cheng-Prusoff, ATP = Km)) of 36.2 nM.
`COc1cc(OC)c(C=C2C(O)=Nc3ccccc32)c(OC)c1` [IC261]: the IC50 in test [10] is 1000 nM; in [7], 2500 nM.

The record behind these values is paper PMC8401859 (Molecules, 2021).
